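How tested: cells in 96-well plates exposed to compound for 48 hours at five concentrations. The concentration for 50% growth inhibition is given as GI50. TGI denotes the concentration required for complete inhibition of growth.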
Assays:
Assay in all cases: DTP human tumour cell line panel, 48 h
HCT-116 colon = tested on: HCT-116 colon
MCF7 breast = tested on: MCF7 breast
HCT-15 colon = tested on: HCT-15 colon
EKVX NSCLC = tested on: EKVX NSCLC
MDA-MB-231 breast = tested on: MDA-MB-231 breast
IGROV1 ovarian = tested on: IGROV1 ovarian
SR leukemia = tested on: SR leukemia
OVCAR-5 ovarian = tested on: OVCAR-5 ovarian
NCI-H226 lung = tested on: NCI-H226 lung
NCI-H522 lung = tested on: NCI-H522 lung
COLO 205 colon = tested on: COLO 205 colon
BT-549 breast = tested on: BT-549 breast
SK-MEL-5 melanoma = tested on: SK-MEL-5 melanoma
KM12 colon = tested on: KM12 colon
UACC-62 melanoma = tested on: UACC-62 melanoma
RXF 393 renal = tested on: RXF 393 renal
HOP-92 NSCLC = tested on: HOP-92 NSCLC
A498 renal = tested on: A498 renal
UO-31 renal = tested on: UO-31 renal
SW-620 colon = tested on: SW-620 colon
MOLT-4 leukemia = tested on: MOLT-4 leukemia
UACC-257 melanoma = tested on: UACC-257 melanoma
ACHN renal = tested on: ACHN renal
HL-60(TB) leukemia = tested on: HL-60(TB) leukemia
SF-268 CNS = tested on: SF-268 CNS
OVCAR-4 ovarian = tested on: OVCAR-4 ovarian
OVCAR-3 ovarian = tested on: OVCAR-3 ovarian
HOP-62 NSCLC = tested on: HOP-62 NSCLC
SNB-19 CNS = tested on: SNB-19 CNS
SNB-75 CNS = tested on: SNB-75 CNS
M14 melanoma = tested on: M14 melanoma
NCI-H460 lung = tested on: NCI-H460 lung
HS 578T breast = tested on: HS 578T breast
HT29 colon = tested on: HT29 colon
SN12C renal = tested on: SN12C renal
CCRF-CEM leukemia = tested on: CCRF-CEM leukemia
NCI-H23 lung = tested on: NCI-H23 lung
HCC-2998 colon = tested on: HCC-2998 colon
T-47D breast = tested on: T-47D breast
DU-145 prostate = tested on: DU-145 prostate
PC-3 prostate = tested on: PC-3 prostate
K-562 leukemia = tested on: K-562 leukemia
NCI/ADR-RES ovarian = tested on: NCI/ADR-RES ovarian
RPMI-8226 leukemia = tested on: RPMI-8226 leukemia
786-0 renal = tested on: 786-0 renal
MDA-MB-435 = tested on: MDA-MB-435
SF-539 CNS = tested on: SF-539 CNS
CAKI-1 renal = tested on: CAKI-1 renal
TK-10 renal = tested on: TK-10 renal
OVCAR-8 ovarian = tested on: OVCAR-8 ovarian
SK-MEL-2 melanoma = tested on: SK-MEL-2 melanoma
SF-295 CNS = tested on: SF-295 CNS
LOX IMVI melanoma = tested on: LOX IMVI melanoma
U251 CNS = tested on: U251 CNS
SK-OV-3 ovarian = tested on: SK-OV-3 ovarian
A549 NSCLC = tested on: A549 NSCLC
SK-MEL-28 melanoma = tested on: SK-MEL-28 melanoma
MALME-3M melanoma = tested on: MALME-3M melanoma

`COCc1nc(N)nc(N2N=C(C)CC2(C)C)n1` gave a TGI (HCT-116 colon) of over 100 µM, a TGI (MCF7 breast) of over 100 µM and a TGI (HCT-15 colon) of over 100 µM. The TGI (EKVX NSCLC) was over 100 µM, the TGI (MDA-MB-231 breast) was over 100 µM and the TGI (IGROV1 ovarian) was over 100 µM. The TGI (SR leukemia) was over 100 µM, the TGI (OVCAR-5 ovarian) was over 100 µM and the TGI (NCI-H226 lung) was over 100 µM. The TGI (NCI-H522 lung) was over 100 µM, the TGI (COLO 205 colon) was over 100 µM and the TGI (BT-549 breast) was over 100 µM. For the same molecule, the TGI (SK-MEL-5 melanoma) was over 100 µM, the TGI (KM12 colon) was over 100 µM and the TGI (UACC-62 melanoma) was over 100 µM. The TGI (RXF 393 renal) was over 100 µM, the TGI (HOP-92 NSCLC) was over 100 µM and the TGI (A498 renal) was over 100 µM. For the same molecule, the TGI (UO-31 renal) was over 100 µM, the TGI (SW-620 colon) was over 100 µM and the TGI (MOLT-4 leukemia) was over 100 µM. For the same molecule, the TGI (UACC-257 melanoma) was over 100 µM, the TGI (ACHN renal) was over 100 µM and the TGI (HL-60(TB) leukemia) was over 100 µM. It also gave a TGI (SF-268 CNS) of over 100 µM, a TGI (OVCAR-4 ovarian) of over 100 µM and a TGI (OVCAR-3 ovarian) of over 100 µM. The TGI (HOP-62 NSCLC) was over 100 µM, the TGI (SNB-19 CNS) was over 100 µM and the TGI (SNB-75 CNS) was over 100 µM. The TGI (M14 melanoma) was over 100 µM, the TGI (NCI-H460 lung) was over 100 µM and the TGI (HS 578T breast) was over 100 µM. It also gave a TGI (HT29 colon) of over 100 µM, a TGI (SN12C renal) of over 100 µM and a TGI (CCRF-CEM leukemia) of over 100 µM. It also gave a TGI (NCI-H23 lung) of over 100 µM, a TGI (HCC-2998 colon) of over 100 µM and a TGI (T-47D breast) of over 100 µM. For the same molecule, the TGI (DU-145 prostate) was over 100 µM, the TGI (PC-3 prostate) was over 100 µM and the TGI (K-562 leukemia) was over 100 µM. It also gave a TGI (NCI/ADR-RES ovarian) of over 100 µM, a TGI (RPMI-8226 leukemia) of over 100 µM and a TGI (786-0 renal) of over 100 µM. For the same molecule, the TGI (MDA-MB-435) was over 100 µM, the TGI (SF-539 CNS) was over 100 µM and the TGI (CAKI-1 renal) was over 100 µM. It also gave a TGI (TK-10 renal) of over 100 µM, a TGI (OVCAR-8 ovarian) of over 100 µM and a TGI (SK-MEL-2 melanoma) of over 100 µM. It also gave a TGI (SF-295 CNS) of over 100 µM, a TGI (LOX IMVI melanoma) of over 100 µM and a TGI (U251 CNS) of over 100 µM. It also gave a TGI (SK-OV-3 ovarian) of over 100 µM, a TGI (A549 NSCLC) of over 100 µM and a TGI (SK-MEL-28 melanoma) of over 100 µM.

`COc1ccc2cc1Oc1ccc(cc1)C[C@H]1c3c(cc4c(c3Oc3cc5c(cc3OC)CCN(C)[C@@H]5C2)OCO4)CCN1C` showed a GI50 (HCT-116 colon) of 0.726 µM, a TGI (HCT-116 colon) of 6.8 µM and a GI50 (MCF7 breast) of 1.85 µM. For the same molecule, the TGI (MCF7 breast) was 7.4 µM, the GI50 (HCT-15 colon) was 2.02 µM and the TGI (HCT-15 colon) was 8.34 µM. For the same molecule, the GI50 (EKVX NSCLC) was 8.47 µM, the TGI (EKVX NSCLC) was 18 µM and the GI50 (MDA-MB-231 breast) was 1.1 µM. For the same molecule, the TGI (MDA-MB-231 breast) was 2.87 µM, the GI50 (IGROV1 ovarian) was 5.42 µM and the TGI (IGROV1 ovarian) was 12.9 µM. The GI50 (SR leukemia) was 0.908 µM, the TGI (SR leukemia) was 2.87 µM and the GI50 (OVCAR-5 ovarian) was 6.65 µM. It also gave a TGI (OVCAR-5 ovarian) of 13.5 µM, a GI50 (NCI-H226 lung) of 4.1 µM and a TGI (NCI-H226 lung) of 11.5 µM. The GI50 (NCI-H522 lung) was 1.43 µM, the TGI (NCI-H522 lung) was 6.77 µM and the GI50 (COLO 205 colon) was 0.356 µM. It also gave a TGI (COLO 205 colon) of 1.36 µM, a GI50 (BT-549 breast) of 5.12 µM and a TGI (BT-549 breast) of 11.8 µM. For the same molecule, the GI50 (SK-MEL-5 melanoma) was 0.763 µM, the TGI (SK-MEL-5 melanoma) was 1.43 µM and the GI50 (KM12 colon) was 4.83 µM. It also gave a TGI (KM12 colon) of 13.2 µM, a GI50 (UACC-62 melanoma) of 1.81 µM and a TGI (UACC-62 melanoma) of 6.16 µM. For the same molecule, the GI50 (RXF 393 renal) was 0.628 µM, the TGI (RXF 393 renal) was 1.69 µM and the GI50 (HOP-92 NSCLC) was 1.3 µM. For the same molecule, the TGI (HOP-92 NSCLC) was 11.8 µM, the GI50 (A498 renal) was 5.93 µM and the TGI (A498 renal) was 12.1 µM. The GI50 (UO-31 renal) was 5.41 µM, the TGI (UO-31 renal) was 11.7 µM and the GI50 (SW-620 colon) was 2.11 µM. The TGI (SW-620 colon) was 8.47 µM, the GI50 (MOLT-4 leukemia) was 3.92 µM and the TGI (MOLT-4 leukemia) was 12.9 µM. It also gave a GI50 (UACC-257 melanoma) of 0.727 µM, a TGI (UACC-257 melanoma) of 1.46 µM and a GI50 (ACHN renal) of 4.59 µM. For the same molecule, the TGI (ACHN renal) was 10.6 µM, the GI50 (HL-60(TB) leukemia) was 3.54 µM and the TGI (HL-60(TB) leukemia) was 11.9 µM. It also gave a GI50 (SF-268 CNS) of 5.09 µM, a TGI (SF-268 CNS) of 11.5 µM and a GI50 (OVCAR-4 ovarian) of 2.52 µM. The TGI (OVCAR-4 ovarian) was 12.3 µM, the GI50 (OVCAR-3 ovarian) was 5.38 µM and the TGI (OVCAR-3 ovarian) was 15 µM. The GI50 (HOP-62 NSCLC) was 2.98 µM, the TGI (HOP-62 NSCLC) was 9.6 µM and the GI50 (SNB-19 CNS) was 3.53 µM. It also gave a TGI (SNB-19 CNS) of 14.6 µM, a GI50 (SNB-75 CNS) of 5.27 µM and a TGI (SNB-75 CNS) of 11.4 µM. It also gave a GI50 (M14 melanoma) of 0.903 µM, a TGI (M14 melanoma) of 1.76 µM and a GI50 (NCI-H460 lung) of 2.82 µM. It also gave a TGI (NCI-H460 lung) of 9.03 µM, a GI50 (MALME-3M melanoma) of 1.18 µM and a TGI (MALME-3M melanoma) of 3.01 µM. For the same molecule, the GI50 (HS 578T breast) was 7.76 µM, the TGI (HS 578T breast) was 46.2 µM and the GI50 (HT29 colon) was 0.237 µM. It also gave a TGI (HT29 colon) of 2.56 µM, a GI50 (SN12C renal) of 3.55 µM and a TGI (SN12C renal) of 10.6 µM. For the same molecule, the GI50 (CCRF-CEM leukemia) was 1.53 µM, the TGI (CCRF-CEM leukemia) was 7.77 µM and the GI50 (NCI-H23 lung) was 5.44 µM. It also gave a TGI (NCI-H23 lung) of 13.5 µM, a GI50 (HCC-2998 colon) of 1.65 µM and a TGI (HCC-2998 colon) of 8.26 µM. It also gave a GI50 (T-47D breast) of 0.988 µM, a TGI (T-47D breast) of 2.05 µM and a GI50 (DU-145 prostate) of 6.23 µM. The TGI (DU-145 prostate) was 17.8 µM, the GI50 (PC-3 prostate) was 2.08 µM and the TGI (PC-3 prostate) was 11.4 µM. For the same molecule, the GI50 (NCI/ADR-RES ovarian) was 6.02 µM, the TGI (NCI/ADR-RES ovarian) was 15.9 µM and the GI50 (RPMI-8226 leukemia) was 1.56 µM. The TGI (RPMI-8226 leukemia) was 8.7 µM, the GI50 (786-0 renal) was 5.57 µM and the TGI (786-0 renal) was 12 µM. It also gave a GI50 (MDA-MB-435) of 1.03 µM, a TGI (MDA-MB-435) of 6.12 µM and a GI50 (SF-539 CNS) of 0.826 µM. The TGI (SF-539 CNS) was 1.63 µM, the GI50 (CAKI-1 renal) was 5.13 µM and the TGI (CAKI-1 renal) was 11.9 µM. It also gave a GI50 (TK-10 renal) of 5.87 µM, a TGI (TK-10 renal) of 12.2 µM and a GI50 (OVCAR-8 ovarian) of 2.36 µM. For the same molecule, the TGI (OVCAR-8 ovarian) was 9.9 µM, the GI50 (SK-MEL-2 melanoma) was 4.13 µM and the TGI (SK-MEL-2 melanoma) was 11.2 µM. For the same molecule, the GI50 (LOX IMVI melanoma) was 0.702 µM, the TGI (LOX IMVI melanoma) was 1.52 µM and the GI50 (U251 CNS) was 0.832 µM. For the same molecule, the TGI (U251 CNS) was 5.52 µM, the GI50 (SK-OV-3 ovarian) was 6.23 µM and the TGI (SK-OV-3 ovarian) was 12.5 µM. The GI50 (A549 NSCLC) was 2.03 µM, the TGI (A549 NSCLC) was 7.89 µM and the GI50 (SK-MEL-28 melanoma) was 0.911 µM. It also gave a TGI (SK-MEL-28 melanoma) of 1.86 µM.

— PubChem BioAssay (NCI)
